Test results published in US9557338B2 (SIGNAL PHARMACEUTICALS, LLC, priority 2012, dated 2017).
Where two headings read alike, the source gives them in different places.

Assays:
Type in all cases: cell-based
[1] = tested on: MDA-MB-231; test: Growth inhibition (cell proliferation assay), MDA-MB-231; conditions: read-out: Compound 1 Growth Inhibition IC50
[2] = tested on: U-87 MG; test: Growth inhibition (cell proliferation assay), U-87 MG; conditions: read-out: Compound 1 Growth Inhibition IC50
[3] = tested on: S6RP(S235/S236); test: Inhibition of S6RP(S235/S236) phosphorylation in cell lines; conditions: read-out: p-S6RP(S235/S236)
[4] = tested on: Phospho-4E-BP1(T46); test: Luminex multiplex assay, Phospho-4E-BP1(T46); conditions: read-out: p-4E-BP1(T46)
Text: Determination of Phospho-GSK3β(S9), Phospho-PRAS40(T246) and Phospho-4E-BP1(T46) and the Effect of Compound 1 or Rapamycin.
The multiplex Luminex assay format differs from conventional enzyme-linked immunosorbent assay (ELISA) in that the multiplex capture antibody is attached to a polystyrene bead whereas the ELISA capture antibody is attached to the microplate well. The use of the suspension bead-based technology enables the multiplexing capabilities of the Luminex assays. The xMAP® technology uses 5.6 micron polystyrene microspheres, which are internally dyed with red and infrared fluorophores of differing intensities. Each bead is given a unique number, or bead region, allowing differentiation of one bead from another. Beads covalently bound to different specific antibodies can be mixed in the same assay, utilizing a 96-well microplate format. At the completion of the sandwich immunoassay, beads can be read, using the Luminex 100™ or Luminex 200 detection system, in single-file by dual lasers for classification and quantification of each analyte. The Akt-Pathway Phospho 5-plex kit used was custom made and includes the ability to simultaneously measure p-GSK3β (S9), p-PRAS40(T246), and p-4E-BP1(T46).
Cells were plated at the required density. The cells were treated with either Compound 1 or rapamycin over a range of concentrations for 1 hour in 5% CO2 at 37° C. Compound 1 and rapamycin were used at the same concentrations as for the proliferation assay. As for the cell proliferation assay, a reference standard was included in the assay for PC3 cells and the coefficient of variation for assay of p-GSK3β(S9) was 37.8% (n=30), p-PRAS40(T246) was 27.8% (n=30) and for p4E-BP1(T46) was 13.5% (n=4). For three cell lines (HCT-116, MDA-MB-231 and HT29) in the assay for phosphorylation of GSK3β, PRAS40 and 4E-BP1, IGF-I stimulation (500 ng/mL, recombinant human IGF-I) for the last 10 min of incubation was used. The media was aspirated from the wells and the plate was placed on ice. Then 35 μL of Lysis Buffer was added to each well and incubated on ice for at least 30 minutes. During the incubation, the standard curve for each phosphoprotein was prepared. The standards provided were reconstituted and serial dilutions were prepared according to the manufacturer's instructions. At the end of the cell lysis step, […] of the lysate was transferred to a V-bottom plate and spun at 4° C. at 2000 rpm for 5 minutes. Both the 1× Luminex bead and 1× detector antibody solutions were prepared during this time. The 1× bead solution was vortexed and 25 μL was added into each well of a black round bottom plate. Then 50 μL of the 1× detector antibody was added to each well. Fifty microliters (50 μL) of the prepared standards were added to the designated wells. Then 25 μL of the assay diluent was added to each well designated for the compound-treated cell lysates. At the end of the spin, 25 μL of cell lysate was added to the corresponding wells of the black assay plate. The assay plate was covered with the white plate lid and incubated for 3 hours at room temperature on an orbital shaker.
Approximately 10-15 minutes prior to the end of the first incubation, the secondary antibody solution was prepared according to the vendor's protocol. Goat anti-rabbit R-phycoerythrin red fluorescent protein (RPE) supplied as a 10× concentrate was diluted to generate a 1× goat anti-rabbit RPE stock. The 96-well filter plate was pre-wet with 200 μL of 1× Working wash solution. At the end of the 3 hour incubation, a multichannel pipette was used to transfer the entire contents from each assay well into the wells of the filter plate. The liquid from the wells was removed by aspiration with the vacuum manifold. Then 200 μL of 1× Working wash solution was added into each well. The wash solution was aspirated using the vacuum manifold after 15-30 seconds. This wash step was repeated one time. The bottom of the plate was blotted on clean paper towels to remove residual liquid. […]

[5] = molecular target: T1, mTORC2 (Homo sapiens, UniProt P42345); test: Inhibition of mTORC2 measured by phosphorylation of pathway markers (FIG. 1); conditions: phosphorylation of pathway markers Akt, PRAS40, GSK-3β, p70S6, S6, 4-EBP1
T1 construct: endogenous in cells; host or cells: PC3, A549, HCT116, U-87 MG, MDA-MB-231, NCI-H23, HT-29
Text: The activity of the TORC1 complex can be followed from the phosphorylation status of 4E-BP1(T46), a direct substrate of mTOR kinase and S6RP(S235/S236), a downstream substrate from mTOR. The activity of the TORC2 complex can be followed directly from the phosphorylation status of Akt(S473) and indirectly from the phosphorylation status of AKT substrates, GSK3β(S9) and PRAS40(T246). […] Full activation of Akt requires an additional phosphorylation on T308 that is done by PDK1 and is speculated to be co-dependent with the TORC2 phosphorylation of the Akt(S473).

[6] = tested on: A549; test: Growth inhibition (cell proliferation assay), A549; conditions: read-out: Compound 1 Growth Inhibition IC50
[7] = tested on: NCI-H23; test: Growth inhibition (cell proliferation assay), NCI-H23; conditions: read-out: Compound 1 Growth Inhibition IC50

CO[C@H]1CC[C@H](N2C(=O)CNc3ncc(-c4ccc(C(C)(C)O)nc4)nc32)CC1 [Compound 1, 7-(6-(2-hydroxypropan-2-yl)pyridin-3-yl)-1-((1r,4r)-4-methoxycyclohexyl)-3,4-dihydropyrazino-[2,3-b]pyrazin-2(1H)-one] gave an IC50 [1] of 1770 nM, an IC50 [2] of 790 nM and an IC50 ([3]; A549) of 40 nM. It also gave an IC50 ([3]; HCT116) of 80 nM, an IC50 ([3]; HT-29) of 10 nM and an IC50 ([3]; MDA-MB-231) of 30 nM. For the same compound, the IC50 ([3]; NCI-H23) was 70 nM, the IC50 ([3]; PC3) was 20 nM and the IC50 ([3]; U-87 MG) was 190 nM. For the same compound, the IC50 ([4]; A549) was 330 nM, the IC50 ([4]; HCT116, IGF-I stimulation) was 390 nM and the IC50 ([4]; HT-29, IGF-I stimulation) was 70 nM. It also gave an IC50 ([4]; MDA-MB-231, IGF-I stimulation) of 120 nM, an IC50 ([4]; NCI-H23) of 120 nM and an IC50 ([4]; PC3) of 410 nM. For the same compound, the IC50 ([4]; U-87 MG) was 1340 nM, the “inhibition of mTORC2” value [5] was “inhibition” and the IC50 [6] was 320 nM. It also gave an IC50 [7] of 3710 nM.
